Values joined by “and” are separate entries in the source; they are usually repeats but may differ in a detail not shown here. Equal values may be shown once. Toxic doses and inconclusive results are not listed. No stated cut-off is given here; in the data, active means T/C of 150% or more; inactive means T/C below 125%. Peptide text beside a SMILES is read from it. * marks the point of attachment. Trt = c1ccc(C(c2ccccc2)(c2ccccc2)*)cc1; Boc = CC(C)(C)OC(=O)*
Tested on: L1210 leukemia ip in BDF1 mice, survival T/C
Assay: NCI In Vivo Anticancer Drug Screen. Data for tumor model L1210 Leukemia (intraperitoneal) in B6D2F1 (BDF1) mice
Conditions: higher = longer survival
Procedure, shortened: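 Ratio derived from survival: compound-dosed mice over vehicle-dosed mice, all bearing a transplantable tumor.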

[1] = endpoint: mean survival time, dose: 100.0 mg/kg/injection, schedule: Q01DX001 (ip), vehicle: saline
[2] = endpoint: mean survival time, dose: 200.0 mg/kg/injection, schedule: Q01DX001 (ip), vehicle: saline
[3] = endpoint: mean survival time, dose: 400.0 mg/kg/injection, schedule: Q01DX001 (ip), vehicle: saline
[4] = endpoint: mean survival time, dose: 100.0 mg/kg/injection, schedule: Q01DX009 (ip), vehicle: saline
[5] = endpoint: mean survival time, dose: 200.0 mg/kg/injection, schedule: Q01DX009 (ip), vehicle: saline
[6] = endpoint: mean survival time, dose: 400.0 mg/kg/injection, schedule: Q01DX009 (ip), vehicle: saline
[7] = endpoint: mean survival time, dose: 100.0 mg/kg/injection, schedule: Q01DX001 (ip), vehicle: carboxymethylcellulose (CMC)
[8] = endpoint: mean survival time, dose: 200.0 mg/kg/injection, schedule: Q01DX001 (ip), vehicle: carboxymethylcellulose (CMC)
[9] = endpoint: mean survival time, dose: 400.0 mg/kg/injection, schedule: Q01DX001 (ip), vehicle: carboxymethylcellulose (CMC)
[10] = endpoint: mean survival time, dose: 100.0 mg/kg/injection, schedule: Q01DX009 (ip), vehicle: saline with Tween-80
[11] = endpoint: mean survival time, dose: 200.0 mg/kg/injection, schedule: Q01DX009 (ip), vehicle: saline with Tween-80
[12] = endpoint: mean survival time, dose: 400.0 mg/kg/injection, schedule: Q01DX009 (ip), vehicle: saline with Tween-80
[13] = endpoint: mean survival time, dose: 100.0 mg/kg/injection, schedule: Q04DX003 (ip), vehicle: saline with Tween-80
[14] = endpoint: mean survival time, dose: 200.0 mg/kg/injection, schedule: Q04DX003 (ip), vehicle: saline with Tween-80
[15] = endpoint: mean survival time, dose: 400.0 mg/kg/injection, schedule: Q04DX003 (ip), vehicle: saline with Tween-80

Measured: T/C

O=NN(CCCl)C(=O)NC1C2CC3CC(C2)CC1C3 (stereo not given)
inactive: endpoint: mean survival time, dose: 12.0 mg/kg/injection, schedule: Q01DX001 (ip), vehicle: other 110 % of control | endpoint: mean survival time, dose: 18.0 mg/kg/injection, schedule: Q01DX001 (ip), vehicle: other 114 % of control | endpoint: mean survival time, dose: 26.0 mg/kg/injection, schedule: Q01DX001 (ip), vehicle: other 123 % of control
active: endpoint: mean survival time, dose: 40.0 mg/kg/injection, schedule: Q01DX001 (ip), vehicle: other 163 % of control | endpoint: mean survival time, dose: 60.0 mg/kg/injection, schedule: Q01DX001 (ip), vehicle: other 244 % of control | endpoint: mean survival time, dose: 93.0 mg/kg/injection, schedule: Q01DX001 (ip), vehicle: other 323 % of control | endpoint: mean survival time, dose: 187.0 mg/kg/injection, schedule: Q01DX001 (ip), vehicle: other 340 % of control

Nc1nc(N)c(N=Nc2c(Br)cc(S(N)(=O)=O)cc2Br)c(=O)[nH]1
inactive: [1] 100 % of control | [2] 105 % of control | [3] 102 % of control

Cc1ccc2ccc(-c3ccccc3)nc2c1
inactive: [1] 96 % of control | [4] 93 % of control | [2] 105 % of control | [5] 90 % of control | [3] 109 % of control | [6] 92 % of control

O=C(O)/C(=C\c1ccc(Cl)cc1)c1cccc2ccccc12
inactive: endpoint: mean survival time, dose: 50.0 mg/kg/injection, schedule: Q04DX003 (ip), vehicle: Klucel (hydroxypropylcellulose) (HPC) 92 % of control | endpoint: mean survival time, dose: 100.0 mg/kg/injection, schedule: Q01DX009 (ip), vehicle: Klucel (hydroxypropylcellulose) (HPC) 98 % of control | endpoint: mean survival time, dose: 200.0 mg/kg/injection, schedule: Q01DX009 (ip), vehicle: Klucel (hydroxypropylcellulose) (HPC) 100 % of control | endpoint: mean survival time, dose: 200.0 mg/kg/injection, schedule: Q04DX003 (ip), vehicle: Klucel (hydroxypropylcellulose) (HPC) 87 % of control

CCCCCCCCCCCCCCCCS(=O)(=O)N/N=C/c1ccc(N(C)C)cc1
inactive: [7] 92 % of control | [8] 87 % of control | [9] 89 % of control

CCOc1ccc(N=Nc2c(O)n(-c3ccccc3)c(=S)n(-c3ccccc3)c2=O)cc1
inactive: endpoint: mean survival time, dose: 100.0 mg/kg/injection, schedule: Q01DX001 (ip), vehicle: Klucel (hydroxypropylcellulose) (HPC) 96 % of control | endpoint: mean survival time, dose: 200.0 mg/kg/injection, schedule: Q01DX001 (ip), vehicle: Klucel (hydroxypropylcellulose) (HPC) 107 % of control | endpoint: mean survival time, dose: 400.0 mg/kg/injection, schedule: Q01DX001 (ip), vehicle: Klucel (hydroxypropylcellulose) (HPC) 100 % of control

O=C(O)CCNCCO
inactive: [4] 98 % of control | [5] 98 % of control

N#C[C@H](OC1OC(COC2OC(CO)C(O)C(O)C2O)C(O)C(O)C1O)c1ccccc1 (stereo not given in full)
inactive: [4] 102 % of control | [5] 101 % of control | [6] 98 % of control | endpoint: median survival time, dose: 25.0 mg/kg/injection, schedule: Q01DX009 (ip), vehicle: water 101 % of control | endpoint: median survival time, dose: 25.0 mg/kg/injection, schedule: Q01DX Z (ip), vehicle: water 100 % of control | endpoint: median survival time, dose: 50.0 mg/kg/injection, schedule: Q01DX009 (ip), vehicle: water 92 % of control | endpoint: median survival time, dose: 50.0 mg/kg/injection, schedule: Q01DX Z (ip), vehicle: water 87 % of control | endpoint: median survival time, dose: 100.0 mg/kg/injection, schedule: Q01DX009 (ip), vehicle: water 51 % of control | endpoint: median survival time, dose: 200.0 mg/kg/injection, schedule: Q01DX009 (ip), vehicle: water 51 % of control | endpoint: median survival time, dose: 400.0 mg/kg/injection, schedule: Q01DX009 (ip), vehicle: water 93 % of control | endpoint: median survival time, dose: 400.0 mg/kg/injection, schedule: Q01DX Z (ip), vehicle: water 87 % of control

COc1ccccc1/C=C(/C)C(C)=O
inactive: endpoint: mean survival time, dose: 75.0 mg/kg/injection, schedule: Q04DX003 (ip), vehicle: Klucel (hydroxypropylcellulose) (HPC) 102 % of control | [7] 103 % of control | endpoint: mean survival time, dose: 150.0 mg/kg/injection, schedule: Q04DX003 (ip), vehicle: Klucel (hydroxypropylcellulose) (HPC) 97 % of control | [8] 108 % of control | endpoint: mean survival time, dose: 300.0 mg/kg/injection, schedule: Q04DX003 (ip), vehicle: Klucel (hydroxypropylcellulose) (HPC) 94 % of control | [9] 97 % of control

Nc1nc2ccc(CNc3ccc(C(=O)NC(CC(=O)O)C(=O)O)cc3)cc2c(=O)[nH]1 (stereo not given)
inactive: endpoint: mean survival time, dose: 18.7 mg/kg/injection, schedule: Q01DX001 (ip), vehicle: saline with Tween-80 102 % of control | endpoint: mean survival time, dose: 37.5 mg/kg/injection, schedule: Q01DX001 (ip), vehicle: saline with Tween-80 113 % of control | endpoint: mean survival time, dose: 75.0 mg/kg/injection, schedule: Q01DX001 (ip), vehicle: saline with Tween-80 115 % of control | endpoint: mean survival time, dose: 100.0 mg/kg/injection, schedule: Q01DX001 (ip), vehicle: saline with Tween-80 109 % of control | endpoint: mean survival time, dose: 200.0 mg/kg/injection, schedule: Q01DX001 (ip), vehicle: saline with Tween-80 109 % of control

CCOC(=O)C(C)C(C)(O)c1ccccc1 (stereo not given)
inactive: [10] 95 % of control | [11] 109 % of control | [12] 96 % of control

COC(=O)CC(OC)OC
inactive: [10] 107 % of control | [4] 103 % of control | [13] 89 % of control | [11] 100 % of control | [5] 103 % of control | [14] 102 % of control | [12] 97 % of control | [6] 105 % of control | [15] 101 % of control

CCOC(=O)C(N)Cc1ccc(N(CCCl)CCCl)cc1 (stereo not given)
active: endpoint: mean survival time, dose: 4.0 mg/kg/injection, schedule: Q01DX Z (ip), vehicle: saline 161 % of control and 190 % of control | endpoint: mean survival time, dose: 4.0 mg/kg/injection, schedule: Q01DX Z (oral), vehicle: saline 162 % of control and 168 % of control | endpoint: mean survival time, dose: 6.0 mg/kg/injection, schedule: Q01DX Z (ip), vehicle: saline 160 % of control and 164 % of control and 202 % of control | endpoint: mean survival time, dose: 9.0 mg/kg/injection, schedule: Q01DX Z (ip), vehicle: saline 162 % of control and 164 % of control and 172 % of control | endpoint: mean survival time, dose: 13.5 mg/kg/injection, schedule: Q01DX Z (ip), vehicle: saline 165 % of control
inactive: endpoint: mean survival time, dose: 0.06 mg/kg/injection, schedule: Q01DX Z (ip), vehicle: saline 99 % of control | endpoint: mean survival time, dose: 0.13 mg/kg/injection, schedule: Q01DX Z (ip), vehicle: saline 124 % of control | endpoint: mean survival time, dose: 0.5 mg/kg/injection, schedule: Q01DX Z (oral), vehicle: saline 120 % of control | endpoint: mean survival time, dose: 2.0 mg/kg/injection, schedule: Q01DX Z (ip), vehicle: saline 122 % of control | endpoint: mean survival time, dose: 16.0 mg/kg/injection, schedule: Q01DX Z (oral), vehicle: saline 87 % of control and 88 % of control | endpoint: mean survival time, dose: 20.0 mg/kg/injection, schedule: Q01DX Z (ip), vehicle: saline 97 % of control

C/C=C(/Br)C(=O)O
inactive: endpoint: mean survival time, dose: 12.5 mg/kg/injection, schedule: Q04DX002 (ip), vehicle: saline with Tween-80 113 % of control | endpoint: mean survival time, dose: 25.0 mg/kg/injection, schedule: Q04DX002 (ip), vehicle: saline with Tween-80 105 % of control | endpoint: mean survival time, dose: 50.0 mg/kg/injection, schedule: Q04DX002 (ip), vehicle: saline with Tween-80 98 % of control | endpoint: mean survival time, dose: 100.0 mg/kg/injection, schedule: Q04DX002 (ip), vehicle: saline with Tween-80 105 % of control

O=C(Nc1ccc(S(=O)(=O)F)cc1)/C(=C\c1ccc([N+](=O)[O-])cc1)c1cccc(Cl)c1
inactive: endpoint: mean survival time, dose: 100.0 mg/kg/injection, schedule: Q04DX002 (ip), vehicle: Klucel (hydroxypropylcellulose) (HPC) 94 % of control | endpoint: mean survival time, dose: 200.0 mg/kg/injection, schedule: Q04DX002 (ip), vehicle: Klucel (hydroxypropylcellulose) (HPC) 105 % of control | endpoint: mean survival time, dose: 400.0 mg/kg/injection, schedule: Q04DX002 (ip), vehicle: Klucel (hydroxypropylcellulose) (HPC) 105 % of control

CC(C)(C)OC(=O)NC(CSC(c1ccccc1)(c1ccccc1)c1ccccc1)C(=O)NC(Cc1ccccc1)C(=O)NCC(=O)O (stereo not drawn) (Boc-Cys(Trt)-Phe-Gly-OH; configuration not given here)
inactive: endpoint: mean survival time, dose: 75.0 mg/kg/injection, schedule: Q01DX001 (ip), vehicle: saline 93 % of control | endpoint: mean survival time, dose: 150.0 mg/kg/injection, schedule: Q01DX001 (ip), vehicle: saline 91 % of control

COC(=O)c1ccc(OC)c2nc3c(C=O)c(OC)cc(OC)c3nc12
inactive: [13] 102 % of control | [14] 109 % of control | [15] 95 % of control
